Laboratory results published in PMC7866885 (PeerJ, 2021).

Tests used:
Assay in all cases: DHFR activity, NADPH consumption at […] nm
Type in all cases: biochemical
[1] = biological target: T1, S. suis dihydrofolate reductase (SsDHFR) (Streptococcus suis, UniProt A0A0H3N4C4)
T1 construct: gene dyr; full-length dhfr in pET15b (NdeI/BamHI, N-terminal vector tag kept); clarified lysate of E. coli BL21(DE3), not purified
T1 sequence (A0A0H3N4C4 1-170): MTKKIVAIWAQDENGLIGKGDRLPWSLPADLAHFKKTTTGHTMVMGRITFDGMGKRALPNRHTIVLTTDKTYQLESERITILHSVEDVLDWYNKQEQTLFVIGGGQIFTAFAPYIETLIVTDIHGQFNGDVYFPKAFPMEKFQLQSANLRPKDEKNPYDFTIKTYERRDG

[2] = biological target: T1, S. suis dihydrofolate reductase (SsDHFR); conditions: 0.1 mM dihydrofolate, 0.1 mM NADPH, 50 mM TES pH 7.0; lysate
[3] = biological target: T1, S. suis dihydrofolate reductase (SsDHFR); conditions: 1 µM inhibitor; 0.1 mM dihydrofolate, 0.1 mM NADPH, 50 mM TES pH 7.0; lysate of overexpressing E. coli BL21(DE3), host DHFR background present

COc1ccc(OC)c(NCc2ccc3nc(N)nc(N)c3c2Cl)c1 [MMV675968]
remaining activity at 1 µM [1]: 2%

NC(=O)C1=CN([C@@H]2O[C@H](COP(=O)(O)OP(=O)(O)OC[C@H]3O[C@@H](n4cnc5c(N)ncnc54)[C@H](OP(=O)(O)O)[C@@H]3O)[C@@H](O)[C@H]2O)C=CC1 [NADPH]
DHFR activity, NADPH consumption at 340 nm [2]: DHFR uses NADPH as a cofactor for the conversion of dihydrofolate (DHF) to tetrahydrofolate (THF)

CC1(C)N=C(N)N=C(N)N1c1ccc(Cl)cc1 [cycloguanil]
% activity at 1 μM [3]: Trimethoprim, pyrimethamine, and cycloguanil were moderately effective at inhibiting SsDHFR

CCc1nc(N)nc(N)c1-c1ccc(Cl)cc1 [pyrimethamine]
% activity at 1 μM [3]: Trimethoprim, pyrimethamine, and cycloguanil were moderately effective at inhibiting SsDHFR
